Drawing on patent US20150306108A1, “COMPOSITIONS OF ALDH1A1 INHIBITORS AND METHODS OF USE IN TREATING CANCER” (Indiana University Research & Technology Corporation, priority 2014, published 2015), this text covers IC50 and formation of spheres for 16 molecules.

One experiment deals with T1, ALDH1A1 (Homo sapiens, UniProt P00352).
T1 construct: made in house
T1 sequence (P00352 1-501): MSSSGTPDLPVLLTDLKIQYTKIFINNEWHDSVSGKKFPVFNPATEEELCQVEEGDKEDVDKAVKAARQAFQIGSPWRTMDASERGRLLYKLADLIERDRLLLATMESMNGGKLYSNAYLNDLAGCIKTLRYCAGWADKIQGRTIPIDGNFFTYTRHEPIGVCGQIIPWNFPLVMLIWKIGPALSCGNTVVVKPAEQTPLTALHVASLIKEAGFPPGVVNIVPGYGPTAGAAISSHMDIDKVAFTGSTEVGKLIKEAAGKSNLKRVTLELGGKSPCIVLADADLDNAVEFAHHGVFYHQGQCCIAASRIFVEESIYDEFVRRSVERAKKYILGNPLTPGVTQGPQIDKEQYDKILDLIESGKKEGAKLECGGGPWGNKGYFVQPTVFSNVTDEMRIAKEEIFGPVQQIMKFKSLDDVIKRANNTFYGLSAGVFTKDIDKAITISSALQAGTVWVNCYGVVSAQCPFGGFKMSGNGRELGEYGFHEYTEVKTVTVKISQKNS
Briefly: ALDH1A1 aldehyde oxidation (dehydrogenase) activity assay, NADH formation at 340 nm. The format is biochemical.

In a further experiment the target is T2, ALDH3A1 (Homo sapiens, UniProt P30838).
T2 construct: made in house
T2 sequence (P30838 1-453): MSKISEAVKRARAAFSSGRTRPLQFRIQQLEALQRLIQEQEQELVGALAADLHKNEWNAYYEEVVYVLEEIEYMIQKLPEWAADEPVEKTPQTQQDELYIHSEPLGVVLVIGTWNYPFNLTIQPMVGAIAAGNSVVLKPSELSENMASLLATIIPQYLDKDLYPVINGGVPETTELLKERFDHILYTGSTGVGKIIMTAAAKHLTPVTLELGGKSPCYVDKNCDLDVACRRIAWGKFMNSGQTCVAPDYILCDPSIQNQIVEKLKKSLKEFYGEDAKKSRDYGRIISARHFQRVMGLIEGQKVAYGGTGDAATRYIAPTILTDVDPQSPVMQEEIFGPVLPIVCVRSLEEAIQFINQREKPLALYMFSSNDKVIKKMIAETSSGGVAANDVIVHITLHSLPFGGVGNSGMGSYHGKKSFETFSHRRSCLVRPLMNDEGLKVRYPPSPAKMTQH
Briefly: ALDH3A1 benzaldehyde oxidation activity assay. The format is biochemical. The note with it: Table 4; NI/NI(A) at 100 μM compound; read-out: IC50 in μM (SE) ALDH3A1. Here is the method: Hits from the HTS were ordered from ChemDiv to determine if they had any effect on aldehyde oxidation and whether they were selective for ALDH1A1 compared to ALDH2 and ALDH3A1. Dehydrogenase activity of the three isoenzymes were assayed by monitoring the production of NADH at 340 nm (molar extinction coefficient of 6220 M^−1 cm^−1) on a Beckman DU-640 or Cary 300 Bio UV-Vis spectrophotometer for 2 to 3 minutes. For ALDH1A1 and ALDH2, the reaction contained 100-200 nM enzyme, 200 μM NAD^+, 100 μM propionaldehyde, and 1% DMSO in 50 mM Na^+ BES, pH 7.5 at room temperature. For ALDH3A1, the reaction contained 20 nM enzyme, 200 μM NAD^+, 300 μM benzaldehyde, and 1% DMSO in either 100 mM sodium phosphate or 50 mM Na^+ BES at pH 7.5 at room temperature.
For most compounds, 20 μM concentration was used for the selectivity assays. […] Following a 2 minute incubation of enzyme, compound, and NAD^+, the reaction was initiated by adding substrate. […] Data were fit to the four parameter EC50 equation using SigmaPlot (StatSys v12.3).
Dehydrogenase activity of purified recombinant ALDH1A1, ALDH1A2, ALDH1A3, ALDH1B1, ALDH2, and ALDH3A1 was assayed spectrophotometrically by monitoring the formation of NADH at 340 nm (molar extinction coefficient of 6220 M^−1 cm^−1) on a Beckman DU-640 or Cary 300 Bio UV-Vis spectrophotometer. Characterization of ALDH1A1 WT and ALDH1A1 G458N were performed by co-varying acetaldehyde and NAD^+ concentrations in reactions containing 150-300 nM enzyme, 50-500 μM or 20-200 μM acetaldehyde, and 50-500 μM NAD^+ in 50 mM sodium BES, pH 7.5 at 25° C. Reactions were initiated by adding enzyme. Selectivity of compounds for dehydrogenase activity of ALDH1A1, ALDH1A2, ALDH1A3, ALDH1B1 and ALDH2 were measured in a solution containing 100-200 nM enzyme, 200 μM NAD^+, 1% DMSO, and 100 μM propionaldehyde (non-saturating for all enzymes tested, except ALDH2) in 50 mM sodium BES. ALDH3A1 activity was measured under the following conditions: 25 nM enzyme, 200 μM NAD^+, 1% DMSO, and 300 μM benzaldehyde (˜KM) in either 100 mM sodium phosphate buffer, pH 7.5 or 50 mM sodium BES, pH 7.5. All assays were performed at 25° C. and were initiated by the addition of the aldehyde substrate following a 2 minute pre-incubation with compound and cofactor. Selectivity was initially tested using 20 μM compound, with ALDH1A1-selective modulators further tested using 100 μM compound. […] After a 2 minute pre-incubation with compound and NAD^+, all reactions were initiated by the addition of propionaldehyde. Data were fit to the four parameter EC50 equation using SigmaPlot (StatSys v12.3). The values represent the average of three independent experiments (each n=3). The mode of inhibition was determined via steady-state kinetics by co-varying inhibitor and substrate concentrations at fixed concentration of the second substrate. All reactions contained 100-150 nM ALDH1A1 and 1% DMSO in 50 mM sodium BES, pH 7.5 at 25° C. […] All data were fit to competitive, noncompetitive, uncompetitive, and mixed inhibition models using both single substrate-single inhibitor or tight binding inhibition programs in SigmaPlot (StatSys v12.3). The appropriate model was selected through analysis of goodness-of-fit and the residuals of those fits. The values represent the average of three independent experiments (each n=3) using at least two protein preps.
ALDH1A1, ALDH1A2, ALDH1A3, ALDH2, and ALDH3A1 were produced and purified as previously described. A highthroughput screen (HTS) of 64,000 compounds from the ChemDiv Corp. was performed to identify activators and inhibitors of ALDH1A1. The hydrolysis of para-nitrophenylacetate was used as a measure ALDH1A1 activity (see SM). Selectivity for closely related orthologs was tested at 20 and 100 μM using purified recombinant human ALDH1A1, ALDH1A2, ALDH1A3, ALDH2, and ALDH3A1. […]

Another experiment has as its target T3, ALDH1A2 (Homo sapiens, UniProt O94788).
T3 sequence (O94788 1-518): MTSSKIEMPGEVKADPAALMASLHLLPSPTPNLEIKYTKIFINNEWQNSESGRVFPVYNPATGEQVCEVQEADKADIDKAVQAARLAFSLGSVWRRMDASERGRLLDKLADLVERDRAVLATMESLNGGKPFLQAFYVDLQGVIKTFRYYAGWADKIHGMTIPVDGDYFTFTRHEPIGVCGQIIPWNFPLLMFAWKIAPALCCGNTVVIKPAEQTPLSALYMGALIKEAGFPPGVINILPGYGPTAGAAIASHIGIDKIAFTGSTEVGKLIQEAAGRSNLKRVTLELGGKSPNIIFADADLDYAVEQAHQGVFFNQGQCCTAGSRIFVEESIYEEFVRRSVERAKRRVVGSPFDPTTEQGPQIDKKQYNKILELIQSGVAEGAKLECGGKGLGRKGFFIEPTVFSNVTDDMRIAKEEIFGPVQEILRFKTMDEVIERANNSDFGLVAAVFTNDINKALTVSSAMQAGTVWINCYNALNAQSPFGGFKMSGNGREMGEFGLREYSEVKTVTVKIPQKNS
The experiment in a line: biochemical. The note with it: Table 4; NI/NI(A) at 100 μM compound; read-out: IC50 in μM (SE) ALDH1A2. Type of experiment: biochemical.

Another experiment has as its system IGROV1 cells. The experiment in a line: Spheroid formation under low attachment culture conditions. The format is cell-based, human. The note with it: 50 μM, 7 days, low attachment. The protocol:
Ovarian cancer cell lines or primary cells were seeded at a concentration of 25,000 cells/ml in Mammocult complete medium (StemCell Technologies) and ultra-low attachment plates (Corning, Corning, N.Y.). Spheroids were trypsinized every 7 days and re-plated to generate successive generations. To observe spheroid morphology, A2780, SKOV3, IGROV1, and primary cells were cultured in a rotating bioreactor (Synthecon, Houston, Tex.) until […] compact spheroids were visible (10-30 days). They were harvested, preserved with Histochoice MB Tissue Fixative (Amresco, Solon, Ohio) for 1 hour, and embedded in Immuno-bed resin (Polysciences, Warrington, Pa.). Two micron thick sections were cut on an ultramicrotome and stained with 0.1% methylene blue/0.15% basic fuchsin in 50% methanol.
Cell viability was measured by the trypan blue (ThermoScientific) exclusion test. Cell proliferation was quantified by the MTT assay. Spheroids were counted after centrifugation at 300×g for 5 minutes. All assays were performed in four replicates. Data are presented as means±SEM.

Where [1] appears, read: 100 μM propionaldehyde, 200 μM NAD+, mean/SEM of three independent assays, read-out: IC50 values with ALDH1A1 for compounds that inhibit dehydrogenase activity.
[2] abbreviates: list of inhibitors in summary and description, read-out: IC50 with the listed inhibitors of ALDH1A1 activity.

Like-named read-outs stand apart in the source and are kept apart here.

As a reminder, the IC50 is the point on the concentration scale where inhibition reaches its midpoint. For the molecule `Cc1ccc(-c2nnc(N3CCN(C)CC3)c3ccccc23)cc1C` [CM001], the 50% inhibitory concentration (IC50) on ALDH1A1 (setting [1]) and on ALDH1A1 (setting [2]) was 1.1 µM throughout.

Turning to `CCOc1cc(S(=O)(=O)NCc2cccnc2)c(C)cc1C` [CM009], the IC50 at ALDH1A1 (setting [1]) and at ALDH1A1 (setting [2]) was 5.3 µM in each case.

`C=CCc1cccc(CNc2nc3ccccc3n2CCC)c1O` [CM010]: the half-maximal inhibitory concentration (IC50) on ALDH1A1 (setting [1]) and at ALDH1A1 (setting [2]) was 1.3 µM each time.

For `CCC(C)NC(=O)C1(O)c2cc(Br)ccc2NC(O)N1c1ccc(Cl)cc1` (stereo not drawn) [CM020], the IC50 at ALDH1A1 (setting [1]) and on ALDH1A1 (setting [2]) was 0.45 µM throughout.

Consider `Cc1ccc(Cn2c(CN3CCN(c4ccccc4)CC3)nc3c2c(=O)n(C)c(=O)n3C)cc1` [CM025], for which, on ALDH3A1, the half-inhibitory concentration (IC50) is over 100 µM.

For the molecule `CCN1CCN(Cc2nc3c(c(=O)n(C)c(=O)n3C)n2CC(=O)c2ccccc2)CC1` [CM027], the IC50 at ALDH1A1 (Table 4, NI/NI(A) at 100 μM compound, * <70% maximum inhibition, read-out: IC50 in μM (SE) ALDH1A1) amounted to 6.1 µM.

Consider `NC(=O)CSc1nc2c(sc3ccccc32)c(=O)n1CCCN1CCCC1` [CM037a], for which the half-maximal inhibitory concentration (IC50) at ALDH1A1 (setting [1]) turned out to be 23 µM.

As for `Cc1nc2ccccc2c2oc(C(=O)N3CCCCC3)cc12` [CM038], the IC50 was 0.26 µM at ALDH1A1 (setting [1]); 0.26 µM on ALDH1A1 (setting [2]); under 0.3 µM at ALDH1A1 (propionaldehyde oxidation, values in nM, read-out: IC50 with ALDH1A1).

`COc1ccc(S(=O)(=O)N2N=C(c3cccc(NS(C)(=O)=O)c3)CC2c2ccco2)cc1` (stereo not drawn) [CM045]: the IC50 at ALDH1A1 (setting [1]) and on ALDH1A1 (setting [2]) was 2.5 µM throughout.

For `Cc1cc(C)c(S(=O)(=O)Nc2ccc(O)c(Cl)c2)cc1C` [CM047], the concentration for half-maximal inhibition (IC50) at ALDH1A1 (setting [1]) and at ALDH1A1 (setting [2]) was 0.31 µM throughout.

Regarding `CC(C)CCn1c(CN2CCC(C(N)=O)CC2)nc2c1c(=O)n(C)c(=O)n2C` [CM053], the 50% inhibitory concentration (IC50) on ALDH3A1 was over 100 µM.

As to `Cc1cccc(Cn2c(CN3CCN(C(=O)c4ccco4)CC3)nc3c2c(=O)n(C)c(=O)n3C)c1` [CM055], the IC50 at ALDH1A2 and on ALDH3A1 was over 100 µM each time.

With `CC(C)CCn1c(CN2CCC(C)CC2)nc2c1c(=O)n(C)c(=O)n2C` [CM057], the IC50 at ALDH3A1 was over 100 µM.

Regarding `CN1CCN(C(=O)c2ccc3c(c2)N(Cc2ccccc2)CCS3)CC1` [CM306], the IC50 on ALDH1A1 (setting [1]) and at ALDH1A1 (setting [2]) was 3.5 µM throughout.

On to `Cc1ccc(S(=O)(=O)NCC2CCC(C(=O)NCc3ccco3)CC2)cc1` (stereo not drawn) [CM307], for which the IC50 at ALDH1A1 (setting [1]) and on ALDH1A1 (setting [2]) was 0.57 µM in each case.

For the molecule `CCN(CC)c1ccc(C=O)cc1` [DEAB, diethylaminobenzaldehyde, reference compound], in the experiment with IGROV1 cells, the formation of spheres result is on record as “completely inhibited”.
